Laboratory results: patent US4014909A, “Esters of 21-thiol steroids” (priority 1974, dated 1977)

How the values were obtained:
hepatic tissue = test: Action on the glucidic metabolism: hepatic glycogen after 96 hours treatment; assay type: in vivo, rat (Wistar, male); details: 18 h water diet
Description: The action on the glucidic metabolism was investigated by means of a test, the principle of which is as follows:
Gluco-corticoid reduce the peripheral needs of the organism in glucose, they also increase the synthesis by the liver of glycogen (neo-glycogenesis). Their action on the glucidic metabolism is thus indicated:
(1) By an increase of glycemia;
(2) by a glycogenic overload on the liver and especially by the persistence of the hepatic shock of glycogen in the food-deprived animal, and treated with a glyco-corticoid by comparison with the non-treated animal.
For this study, Wistar male rats were used; the initial weight of which was between 150 and 160 grams, distributed at random in groups of 10.
The products studied were administered by the oral route in suspension in 5 % gum arabic, under a volume of 0.5 ml. per 100 grams, the animals of the reference group receiving the same volume of vehicles under the same condition.
The treatments were carried out daily for four days, a fifth administration being given seven hours before killing the animals, which took place 96 hours after the first administration.
Immediately after killing the animals, a sample of the hepatic tissue was taken from the central lobe and weighed. Immediately afterwards, it was subjected to digestion in 30 % potassium hydroxide in a boiling water-bath for 20 minutes. The glycogen contained in the digestate was then dosed, following the technique described by R. O. Stafford, L. E. Barnes and Coll. (Proc. Soc. Exp. Med. 39/3, 371-374, 1955).
The content of glycogen in the liver samples has been expressed in grams of glycogen per 100 grams of hepatic tissue.
Table XIII which follows indicates the content of glycogen in the liver with the reference animals and the treated animals for 96 hours after a water diet of 18 hours (see procedure (e)).

granuloma = test: Anti-proliferative (anti-granulomatous) activity, cotton pellet granuloma; assay type: in vivo, rat (Wistar, male); details: rat, cotton pellet impregnated with product, 6 days
Description: The experimental local anti-inflammatory activity of the compounds presented was estimated in rats by their anti-proliferative (anti-granulomatous) action, and for certain of these, by their anti-arthritic activity and their antiexudative activity.
The anti-proliferative (anti-granulomatous) activity has been brought into evidence by means of a test, the principle of which is as follows.
The introduction of a foreign body into an organism produces a set of inflammatory reactions which results, in the chromic stage, in the formation of a defence granuloma around the foreign body. The proliferation of this granuloma is eliminated or attenuated by anti-inflammatory agents.
The technique employed is very similar to that described by Winter and Porter (J. Am. Pharm. Ass. 46/9. 515) 1957 with rats.
Homogeneous groups of 6 male adult rats of the Wistar Strain were used, distributed at random and having weights comprised between 180 and 200 grams.
The implants or pellets were prepared from rolls of dental cotton; the weight of the pellets was between 35 and 40 mg.
The products to be tested were dissolved in dimethylsulphoxide (DMSO) and the solutions obtained, deposited on the pellets at a volume of 0.2 ml per pellet. The DMSO was then evaporated under high vacuum at ambient temperature, the complete elimination of the solvent being checked by weighing the pellets. "Reference" pellets, soaked with the solvent alone, were treated in the same manner.
Immediately before their introduction, the pellets were soaked with an antibiotic solution (0.1 ml. of a solution of penicillin G and streptomycin containing 200,000 of penicillin G and 0.1 gram of streptomycin sulphate per cc.).
Each animal received two pellets in the sub-cutaneous dorsal tissue on each side of the spinal column, at the costo-lumbar angle, under light anaesthesia with ether. The day of the operation and for three days after, the animals received by sub-cutaneous injection, 0.1 ml. of the antibiotic solution in the caudal region.
Six days after the introduction, the animals were killed by inhalation of chloroform and the granulomae were extracted and weighed, (fresh weight), and then the initial weights of the cotton pellets were subtracted from the total weight.
Certain non-sulphured steroids causing a large increase in protein catabolism which can influence the formation of the granuloma independently of their anti-inflammatory action, the weights of the granulomae were expressed as a percentage of the body weight (technique proposed by G. Dipasquale and A. Meli: J. Pharm. Pharmacol. (1965), 17,367-382) and the anti-proliferative effect of the various compounds as a percentage inhibition with respect to the reference granulomae. The DE50 were calculated by transferring the results on to semi-logarithmic paper.

granuloma / thymus = test: Ratio of the local anti-inflammatory activity to the thymolytic activity; assay type: in vivo, rat (Wistar); details: for ED50 anti-proliferative activity / ED50 thymolytic activity (sub-cutaneous route): thymolytic activity determined by sub-cutaneous route; for ED50 anti-proliferative activity / ED50 thymolytic activity (oral route): thymolytic activity determined by the oral route
Description: The DE50 were calculated by transferring the results on to semi-logarithmic paper.
For each animal, the weight of the thymus has been brought to 100 grams of body weight. The thymolytic activity of the products under study was then expressed as a percentage of regression of the thymus with respect to the animals of the reference group and the ED50 of each product tested was estimated by transferring the percentage inhibition obtained for each dose on semi-logarithmic paper.
The ratio is indicated in Tables VII, VIII and IX which follow: […]

[1] = tested on: exudate in carrageenan air pouch; test: Anti-exudative action, carrageenan air pouch; assay type: in vivo, rat (Wistar, male); details: injected into the air pouch 96 h after carrageenan; exudate measured 96 h later
Description: The anti-exudative activity was brought into evidence by means of a test, the principle of which is as follows.
This test consists of creating, under the dorsal skin of the rat an air pouch in which an irritant product is injected. An inflammatory reaction appears rapidly and is shown by the accumulation of liquid in the pouch of air.
The introduction of an anti-inflammatory product into the air pouch reduced, more or less completely, the accumulation of exudate.
This study was carried out with male rats of the Wistar strain, the initial weight of which was between 160 and 180 grams, following the technique described by M. Fukuhara and S. Tsurufuji (Bio-Chem. Pharmac. 18, 475-484, 1969). Each lot comprised 10 animals distributed at random.
Twenty-four hours before the beginning of the test, each animal received a sub-cutaneous injection of 6 ml. of air in the dorsal region, previously shaved. […]
Ninety-six hours after this last injection, the animals were killed and the exudate contained in the pouch was collected through a small incision made with a scalpel, and its volume was measured in a test tube.
The difference in volume of the exudate between the animals treated and the reference lot was expressed as a percentage inhibition.

Row | SMILES | Glycogen in hepatic tissue (hepatic tissue; 2 mg/kg oral) [g/100 g] | Glycogen in hepatic tissue (hepatic tissue; 5 mg/kg oral) [g/100 g] | Glycogen in hepatic tissue (hepatic tissue; 10 mg/kg oral) [g/100 g] | Glycogen in hepatic tissue (hepatic tissue; 20 mg/kg oral) [g/100 g] | Glycogen in hepatic tissue (hepatic tissue; 50 mg/kg oral) [g/100 g] | ED50 anti-proliferative activity (granuloma) [mg/pellet] | ED50 anti-proliferative activity / ED50 thymolytic activity (sub-cutaneous route) (granuloma / thymus) | ED50 anti-proliferative activity / ED50 thymolytic activity (oral route) (granuloma / thymus) | ED50 anti-exudatory activity [1] | Glycogen in hepatic tissue (hepatic tissue; 25 mg/kg oral) [g/100 g] | Glycogen in hepatic tissue (hepatic tissue; 100 mg/kg oral) [g/100 g]
1 | CC(=O)OCC(=O)[C@@]1(O)CC[C@H]2[C@@H]3CCC4=CC(=O)CC[C@]4(C)[C@H]3[C@@H](O)C[C@@]21C [Hydrocortisone (acetate), Hydrocortisone acetate, reference compound] | 0.19 | 0.45 | 0.46 | 1.26 | 2.49 | 1.05 | 1.2 | 0.25 | 1,5 mg |  | 
2 | CC(C)(C)C(=O)SCC(=O)[C@@]1(O)CC[C@H]2[C@@H]3CCC4=CC(=O)CC[C@]4(C)[C@H]3[C@@H](O)C[C@@]21C [JO 1016, Dihydroxy-11β, 17α thio-21 dioxo-3,20 pregnene-4-21 pivalate] |  |  |  |  | 0.39 | 0.35 | 0.0008 | < 0.003 | 1.5 mg | 0.25 | 0.42
